Experimental data from patent US8575091B1, “Amylin analogues and pharmaceutical compositions thereof” (Novo Nordisk A/S, priority 2012, dated 2013).
Read-outs that look alike come from different tables or passages of the source. Numbered stars: 1 amine (or outer) side, 2 acyl side, 3 side chain; on linkers, the order of the positions; unused ones are H or OH. Bridge positions count the residues as written; N and C are the ends. Side chains are listed from the residue outwards. Peptide text beside a SMILES is read from it. * marks the point of attachment. C20 diacid = O=C(O)CCCCCCCCCCCCCCCCCCC(=O)*; γGlu = O=C(O)[C@H](CCC(=O)[*:2])N[*:1]

Legend:
[1] = biological target: T1, human amylin receptor (amylin 3(a) receptor: human calcitonin receptor + RAMP-3) (Homo sapiens, UniProt O60896+P30988); test: Assay (II)a functional assay, human amylin receptor (CRE luciferase, BHK cells); format: cell-based; details: for EC50: read-out: hAmylin-R funct. EC50
T1 construct: expressed in transfected cells
T1 sequence (P30988 25-474): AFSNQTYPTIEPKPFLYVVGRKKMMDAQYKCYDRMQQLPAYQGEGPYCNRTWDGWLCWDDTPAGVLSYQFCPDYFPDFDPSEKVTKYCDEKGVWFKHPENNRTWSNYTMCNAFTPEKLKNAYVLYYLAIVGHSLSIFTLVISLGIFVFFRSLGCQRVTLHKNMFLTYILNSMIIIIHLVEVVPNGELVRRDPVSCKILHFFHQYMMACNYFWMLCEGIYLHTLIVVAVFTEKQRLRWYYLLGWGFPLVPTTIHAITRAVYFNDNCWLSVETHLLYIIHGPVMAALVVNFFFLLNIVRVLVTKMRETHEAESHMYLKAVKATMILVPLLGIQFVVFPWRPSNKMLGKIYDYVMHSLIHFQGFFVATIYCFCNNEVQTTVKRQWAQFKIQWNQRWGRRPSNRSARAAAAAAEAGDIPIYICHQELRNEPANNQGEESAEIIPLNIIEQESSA
T1 sequence (O60896 24-148 partner): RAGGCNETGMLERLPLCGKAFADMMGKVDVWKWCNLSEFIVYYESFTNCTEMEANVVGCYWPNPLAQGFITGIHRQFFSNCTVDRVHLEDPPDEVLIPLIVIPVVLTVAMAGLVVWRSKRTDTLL

[2] = biological target: T2, human calcitonin receptor (Homo sapiens, UniProt P30988); test: Assay (II)a functional assay, human calcitonin receptor (CRE luciferase, BHK cells);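 further: luminescence from a CRE-driven luciferase reporter, read by single photon counting after cells were exposed to test samples for 3 h at 37 °C under 5% CO2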; format: cell-based; details: read-out: hCTR funct. EC50
T2 construct: expressed in transfected cells
T2 sequence (P30988 25-474): T1 sequence (P30988 25-474)
Procedure: Assay (II)—Functional Assays
Consequently, transcription is activated by promoters containing multiple copies of the cAMP response element (CRE).
The cell line was further transfected with RAMP-3, using standard methods.
After incubation overnight at 37° C. and 5% CO2, the growth medium was replaced by 50 μl/well assay medium (DMEM (without phenol red), Glutamax™, 10% FBS, and 10 mM Hepes, pH 7.4). Further, 50 μl/well of standard or sample in assay buffer were added. After 3 hours incubation at 37° C. and 5% CO2, the assay medium with standard or sample were removed and replaced by 100 μl/well PBS. Further, 100 μl/well LucLite™ was added. The plates were sealed and incubated at room temperature for 30 minutes. Finally, luminescence was measured on a TopCounter (Packard) in SPC (single photon counting) mode.

[3] = biological target: T3, human amylin receptor (Homo sapiens, UniProt O60896+P30988); test: Assay (V) binding to the human amylin receptor (SPA, 125I-rat amylin); details: for IC50: human amylin receptor membranes, SPA, read-out: hAmylin-R bind IC50
T3 construct: expressed in transfected cells
T3 sequence (P30988 25-474): T1 sequence (P30988 25-474)
T3 sequence (O60896 24-148 partner): T1 sequence (O60896 24-148 partner)
Method in brief: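 SPA competition binding on membranes from Amylin 3(a)/CRE-luc cells, 35 ng/μL membranes with 0.05 mg/well beads. Buffer 50 mM Hepes pH 7.4, 1 mM CaCl2, 5 mM MgCl2, 0.1% OA, 0.02% Tween20. IC50 from one-site competition fit as affinity measure.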

[4] = biological target: T4, rat amylin receptor (Rattus norvegicus, UniProt P32214+Q9JJ73); test: Assay (VI) binding to the rat amylin receptor; details: rCTR bind IC50 divided by rAmylin-R bind IC50
T4 construct: expressed in transfected cells; host or cells: BHK tk'ts 13 (transient, FuGENE 6), membranes
T4 sequence (P32214 25-479 isoform P32214-2 limits assumed): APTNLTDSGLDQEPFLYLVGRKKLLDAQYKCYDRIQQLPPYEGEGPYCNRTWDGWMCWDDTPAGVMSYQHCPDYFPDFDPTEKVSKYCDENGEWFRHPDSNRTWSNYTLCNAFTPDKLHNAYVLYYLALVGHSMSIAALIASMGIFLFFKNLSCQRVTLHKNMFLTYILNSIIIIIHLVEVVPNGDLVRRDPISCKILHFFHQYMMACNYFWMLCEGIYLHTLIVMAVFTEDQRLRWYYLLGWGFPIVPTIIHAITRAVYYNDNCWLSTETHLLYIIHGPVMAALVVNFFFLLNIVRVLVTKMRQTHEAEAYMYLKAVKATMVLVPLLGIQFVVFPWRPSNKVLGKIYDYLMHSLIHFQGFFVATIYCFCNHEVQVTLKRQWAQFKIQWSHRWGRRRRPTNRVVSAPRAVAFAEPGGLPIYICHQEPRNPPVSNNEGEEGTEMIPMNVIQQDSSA
T4 sequence (Q9JJ73 23-147 partner): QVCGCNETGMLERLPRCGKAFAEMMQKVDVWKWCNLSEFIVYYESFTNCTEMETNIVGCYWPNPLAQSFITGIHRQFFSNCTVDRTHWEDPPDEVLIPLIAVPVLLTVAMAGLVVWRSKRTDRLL
Method in brief: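 Binding as in the human amylin receptor binding assay, but with membranes from BHK tk'ts 13 cells transiently co-transfected with rat calcitonin receptor and rat RAMP 3 […]. Membranes were prepared from cells harvested about 48 hours after transfection.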

[5] = biological target: T2, human calcitonin receptor; test: Assay (VII) binding to the human calcitonin receptor (SPA, 125I-Calcitonin); details: read-out: hCTR bind IC50;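 further: cell membranes coupled to SPA beads, competitive displacement read by scintillation counting, IC50 derived from a one-site competition fit as a measure of receptor affinity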
[6] = Assay (IV) determination of solubility; format: physicochemical; details: for Solubility pH 6.5 Concentration (μM): pH 6.5, 18 hours room temperature; for Solubility pH 7.0 Concentration (μM): pH 7.0, 18 hours room temperature; for Solubility pH 7.5 Concentration (μM): pH 7.5, 18 hours room temperature; for Solubility pH 8.0 Concentration (μM): pH 8.0, 18 hours room temperature
Procedure: Assay (IV)—Determination of Solubility
The polypeptide was dissolved in water at ˜500 nmol/ml and mixed 1:1 with a series of buffers (100 mM glycylglycine pH 3.0, 100 mM glycylglycine pH 4.0, 100 mM glycylglycine pH 5.0, 100 mM bistrispropane pH 6.0, 100 mM bistrispropane pH 6.5, 100 mM bistrispropane pH 7.0, 100 mM bistrispropane pH 7.5, 100 mM bistrispropane pH 8.0). After 18 hours at room temperature the samples were centrifuged and the polypeptide concentration determined by UPLC.

[7] = Table 6, human functional selectivity (hCTR EC50 / hAmylin-R EC50)
[8] = Table 6a, human functional selectivity (hCTR EC50 / hAmylin-R EC50), at least 5
[9] = Table 6j, hCTR funct. EC50 / hAmylin-R funct. EC50
[10] = Table 6k, hCTR funct. EC50 / hAmylin-R funct. EC50

| Compound | Ratio hCT/hAmylin funct. [1, 7] | Ratio hCT/hAmylin funct. [1, 8] | Ratio hCT/hAmylin funct. [1, 9] | EC50 ([1]; Table 6j, human amylin receptor functional) | Ratio hCT/hAmylin funct. [1, 10] | EC50 [2] | IC50 [3] | Ratio rCT/rAmylin binding ([4]; Table 7b) | Ratio rCT/rAmylin binding ([4]; Table 7c) | Ratio rCT/rAmylin binding [4] | IC50 [5] | Solubility pH 6.5 Concentration (μM) [6] | Solubility pH 7.0 Concentration (μM) [6] | Solubility pH 7.5 Concentration (μM) [6] | Solubility pH 8.0 Concentration (μM) [6] | EC50 ([1]; functional assay, human amylin receptor) | Ratio hCT/hAmylin binding ([3]; human binding ratio, included for comparison) |
| --- | --- | --- | --- | --- | --- | --- | --- | --- | --- | --- | --- | --- | --- | --- | --- | --- | --- |
| CC[C@H](C)[C@H](NC(=O)[C@H](C)NC(=O)CNC(=O)[C@H](Cc1ccccc1)NC(=O)[C@H](CC(N)=O)NC(=O)[C@@H]1CCCN1C(=O)[C@H](CO)NC(=O)[C@H](CO)NC(=O)[C@H](Cc1c[nH]cn1)NC(=O)[C@H](CCCNC(=N)N)NC(=O)[C@H](CC(C)C)NC(=O)[C@H](Cc1ccccc1)NC(=O)[C@H](CC(N)=O)NC(=O)[C@H](C)NC(=O)[C@H](CC(C)C)NC(=O)[C@H](CCCNC(=N)N)NC(=O)[C@H](CCC(N)=O)NC(=O)[C@@H](NC(=O)[C@H](C)NC(=O)[C@@H]1CSSC[C@H](NC(=O)[C@H](CCCCN)NC(=O)CC[C@H](NC(=O)CCCCCCCCCCCCCCCCCCC(=O)O)C(=O)O)C(=O)N[C@@H](CC(N)=O)C(=O)N[C@@H]([C@@H](C)O)C(=O)N[C@@H](C)C(=O)N[C@@H]([C@@H](C)O)C(=O)N1)[C@@H](C)O)C(=O)N1CCC[C@H]1C(=O)N[C@@H](CO)C(=O)N[C@@H](CO)C(=O)N[C@H](C(=O)N[C@@H](CC(N)=O)C(=O)N[C@H](C(=O)NCC(=O)N[C@@H](CO)C(=O)N[C@@H](CCCCN)C(=O)N[C@H](C(=O)N[C@@H](Cc1ccc(O)cc1)C(N)=O)[C@@H](C)O)C(C)C)[C@@H](C)O [Example 34] | 8.4 | 8.4 | 8.4 | 0.313 nM | 8.4 | 2.62 nM | 1.14 nM | 52.0 | 52.0 | 52.0 | 73.4 nM | – | – | – | – | – | – |
| CC[C@H](C)[C@H](NC(=O)[C@H](C)NC(=O)CNC(=O)[C@H](Cc1ccccc1)NC(=O)[C@H](CC(N)=O)NC(=O)[C@@H]1CCCN1C(=O)[C@H](CO)NC(=O)[C@H](CO)NC(=O)[C@H](Cc1c[nH]cn1)NC(=O)[C@H](CCCNC(=N)N)NC(=O)[C@H](CC(C)C)NC(=O)[C@H](Cc1ccccc1)NC(=O)[C@H](Cc1c[nH]cn1)NC(=O)[C@H](C)NC(=O)[C@H](CC(C)C)NC(=O)[C@H](CCCNC(=N)N)NC(=O)[C@H](CCC(N)=O)NC(=O)[C@@H](NC(=O)[C@H](C)NC(=O)[C@@H]1CSSC[C@H](NC(=O)[C@@H](N)CCCCNC(=O)CC[C@H](NC(=O)CCCCCCCCCCCCCCCCCCC(=O)O)C(=O)O)C(=O)N[C@@H](CC(N)=O)C(=O)N[C@@H]([C@@H](C)O)C(=O)N[C@@H](C)C(=O)N[C@@H]([C@@H](C)O)C(=O)N1)[C@@H](C)O)C(=O)N1CCC[C@H]1C(=O)N[C@@H](CO)C(=O)N[C@@H](CO)C(=O)N[C@H](C(=O)N[C@@H](CC(N)=O)C(=O)N[C@H](C(=O)NCC(=O)N[C@@H](CO)C(=O)N[C@@H](Cc1c[nH]cn1)C(=O)N[C@H](C(=O)N[C@@H](Cc1ccc(O)cc1)C(N)=O)[C@@H](C)O)C(C)C)[C@@H](C)O [Example 66] (H-K([γGlu-C20 diacid])CNTATCATQRLAHFLRHSSPNFGAIPSSTNVGSHTY-NH2; disulfide 2-7; N-terminus assumed) | – | – | – | – | – | – | – | – | – | – | – | ≧200 μM | ≧200 μM | 131 μM | 52 μM | – | – |
| CC[C@H](C)[C@H](NC(=O)[C@H](C)NC(=O)CNC(=O)[C@H](Cc1ccccc1)NC(=O)[C@H](CC(N)=O)NC(=O)[C@@H]1CCCN1C(=O)[C@H](CO)NC(=O)[C@H](CO)NC(=O)[C@H](Cc1c[nH]cn1)NC(=O)[C@H](CCCNC(=N)N)NC(=O)[C@H](CC(C)C)NC(=O)[C@H](Cc1ccccc1)NC(=O)[C@H](CCC(=O)O)NC(=O)[C@H](C)NC(=O)[C@H](CC(C)C)NC(=O)[C@H](CCCNC(=N)N)NC(=O)[C@H](CCC(N)=O)NC(=O)[C@@H](NC(=O)[C@H](C)NC(=O)[C@@H]1CSSC[C@H](NC(=O)[C@@H](N)CCCCNC(=O)CC[C@H](NC(=O)CCCCCCCCCCCCCCCCCCC(=O)O)C(=O)O)C(=O)N[C@@H](CC(N)=O)C(=O)N[C@@H]([C@@H](C)O)C(=O)N[C@@H](C)C(=O)N[C@@H]([C@@H](C)O)C(=O)N1)[C@@H](C)O)C(=O)N1CCC[C@H]1C(=O)N[C@@H](CO)C(=O)N[C@@H](CO)C(=O)N[C@H](C(=O)N[C@@H](CC(N)=O)C(=O)N[C@H](C(=O)NCC(=O)N1CCC[C@H]1C(=O)N[C@@H](CC(N)=O)C(=O)N[C@H](C(=O)N1CCC[C@H]1C(N)=O)[C@@H](C)O)C(C)C)[C@@H](C)O [Example 114] (H-K([γGlu-C20 diacid])CNTATCATQRLAEFLRHSSPNFGAIPSSTNVGPNTP-NH2; disulfide 2-7) | 0.9 | – | – | – | – | 0.09 nM | 0.214 nM | – | – | 1.1 | 0.117 nM | – | – | – | – | 0.105 nM | 0.5 |
| CC[C@H](C)[C@H](NC(=O)[C@H](C)NC(=O)CNC(=O)[C@H](Cc1ccccc1)NC(=O)[C@H](CC(N)=O)NC(=O)[C@@H]1CCCN1C(=O)[C@H](CO)NC(=O)[C@H](CO)NC(=O)[C@H](Cc1c[nH]cn1)NC(=O)[C@H](CCCNC(=N)N)NC(=O)[C@H](CC(C)C)NC(=O)[C@H](Cc1ccccc1)NC(=O)[C@H](CC(N)=O)NC(=O)[C@H](C)NC(=O)[C@H](CC(C)C)NC(=O)[C@H](CCCNC(=N)N)NC(=O)[C@H](CCC(N)=O)NC(=O)[C@@H](NC(=O)[C@H](C)NC(=O)[C@@H]1CSSC[C@H](NC(=O)[C@@H](N)CCCCNC(=O)CC[C@H](NC(=O)CC[C@H](NC(=O)CCCCCCCCCCCCCCCCCCC(=O)O)C(=O)O)C(=O)O)C(=O)N[C@@H](CC(N)=O)C(=O)N[C@@H]([C@@H](C)O)C(=O)N[C@@H](C)C(=O)N[C@@H]([C@@H](C)O)C(=O)N1)[C@@H](C)O)C(=O)N1CCC[C@H]1C(=O)N[C@@H](CO)C(=O)N[C@@H](CO)C(=O)N[C@H](C(=O)N1CCC[C@H]1C(=O)N[C@H](C(=O)NCC(=O)N1CCC[C@H]1C(=O)N[C@@H](CCCNC(=N)N)C(=O)N[C@H](C(=O)N[C@@H](Cc1ccc(O)cc1)C(N)=O)[C@@H](C)O)C(C)C)[C@@H](C)O [Example 119] (H-K([γGlu-γGlu-C20 diacid])CNTATCATQRLANFLRHSSPNFGAIPSSTPVGPRTY-NH2; disulfide 2-7 (inferred); N-terminus and C-terminus assumed) | 26.0 | 26.0 | 26.0 | – | 26.0 | – | – | – | – | – | – | 174 μM | 182 μM | 112 μM | 32 μM | – | – |
